Measured values reported in patent US20240059691A1 (KALVISTA PHARMACEUTICALS LIMITED, priority 2020, published 2024).

Key:
Plasma Kallikrein = Plasma Kallikrein (Homo sapiens (Human), UniProt P03952); test: Determination of related protease inhibition: Plasma Kallikrein (fluorogenic substrate at Km); assay type: biochemical; conditions: 25° C., read-out: IC50 (human PKal)
Procedure: Determination of Related Protease Inhibition
In vitro inhibition of related proteases was determined using an ([…] assay based on standard literature methods (see e.g. Shori et al., Biochem. Pharmacol., 1992, 43, 1209; Bouckaert et al., European Journal of Medicinal Chemistry 110 (2016) 181). Human serine protease enzymes Plasma Kallikrein, KLK1, FXa, Plasmin, Thrombin and Trypsin were assayed for enzymatic activity using an appropriate fluorogenic substrate at Km concentration, FXIa at fixed substrate concentration of 100 μM, and various concentrations of the test compound. Protease activity was measured by monitoring the accumulation of liberated fluorescence from the substrate over […]. The linear rate of fluorescence increase per minute was expressed as percentage (%) activity. IC50 values were calculated as the concentration of inhibitor giving 50% inhibition of the uninhibited enzyme activity (100%).

Human Factor XIIa = Human Factor XIIa (Homo sapiens (Human), UniProt P00748); test: Determination of FXIIa inhibition (fluorogenic substrate H-DPro-Phe-Arg-AFC, IC50 assay); assay type: biochemical; conditions: substrate H-DPro-Phe-Arg-AFC at Km, 25° C.; class scale A-G
Sequence of Human Factor XIIa (P00748 373-615): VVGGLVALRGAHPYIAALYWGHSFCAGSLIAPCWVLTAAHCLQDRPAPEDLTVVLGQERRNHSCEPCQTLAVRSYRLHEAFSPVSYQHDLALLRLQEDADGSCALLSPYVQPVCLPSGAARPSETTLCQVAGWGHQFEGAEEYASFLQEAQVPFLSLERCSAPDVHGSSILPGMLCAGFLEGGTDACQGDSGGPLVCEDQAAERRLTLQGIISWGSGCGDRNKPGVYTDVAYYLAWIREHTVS
How it was run: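 IC50 derived from % remaining activity, taken as the linear fluorescence rate over a 5 min read at 25° C. Substrate H-DPro-Phe-Arg-AFC was used at its Km (Michaelis-Menten) with human FXIIa and serial compound dilutions, 25° C.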

Sequence of Plasma Kallikrein (P03952 391-638): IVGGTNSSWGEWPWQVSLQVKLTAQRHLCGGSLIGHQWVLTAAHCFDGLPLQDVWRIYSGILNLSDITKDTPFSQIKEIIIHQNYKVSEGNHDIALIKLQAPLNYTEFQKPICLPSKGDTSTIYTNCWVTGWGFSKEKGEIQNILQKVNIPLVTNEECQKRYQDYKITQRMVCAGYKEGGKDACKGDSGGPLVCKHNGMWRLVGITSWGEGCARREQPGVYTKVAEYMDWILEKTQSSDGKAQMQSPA
Sequence of Plasma Kallikrein (P03952 20-390 partner): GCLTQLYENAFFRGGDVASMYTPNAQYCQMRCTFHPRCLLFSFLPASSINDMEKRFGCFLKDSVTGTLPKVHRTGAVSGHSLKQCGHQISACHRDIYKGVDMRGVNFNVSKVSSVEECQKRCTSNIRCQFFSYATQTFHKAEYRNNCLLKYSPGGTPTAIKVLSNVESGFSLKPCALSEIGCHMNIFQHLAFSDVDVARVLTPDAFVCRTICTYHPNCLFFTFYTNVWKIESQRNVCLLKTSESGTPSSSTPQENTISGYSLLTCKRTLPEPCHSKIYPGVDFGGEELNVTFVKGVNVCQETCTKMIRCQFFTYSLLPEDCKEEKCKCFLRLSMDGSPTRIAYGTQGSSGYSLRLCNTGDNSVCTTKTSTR

| IC50 (Plasma Kallikrein) | IC50 (Human Factor XIIa) | Structure (SMILES) |
| --- | --- | --- |
| > 40 µM | 1 to 3 µM | Nc1nccc2c(N3CCCC3c3ccc(N4CCn5c(nnc5C(F)F)C4)nc3)cccc12 (stereo not shown) [Example 10001, 5-(2-(6-(3-(difluoromethyl)-5,6-dihydro-[1,2,4]triazolo[4,3-a]pyrazin-7(8H)-yl)pyridin-3-yl)pyrrolidin-1-yl)isoquinolin-1-amine] |
| 10 to 40 µM | 10 to 40 µM | Cc1n[nH]c2c1CCC2Nc1ccc(CNc2cccc3c(N)nccc23)cn1 (stereo not shown) [Example 1119, N5-((6-((3-methyl-1,4,5,6-tetrahydrocyclopenta[c]pyrazol-6-yl)amino)pyridin-3-yl)methyl)isoquinoline-1,5-diamine] |
| 10 to 40 µM | 10 to 40 µM | CN1CCC(OCc2ccc(CNc3ccc4cnc(N)cc4c3)cc2)CC1 [Example 2189, N6-(4-(((1-methylpiperidin-4-yl)oxy)methyl)benzyl)isoquinoline-3,6-diamine] |
| 10 to 40 µM | 10 to 40 µM | CN1CCC(CNc2ccc(CNc3cc(CO)c4cnccc4c3)cn2)CC1 [Example 1211, (6-(((6-(((1-methylpiperidin-4-yl)methyl)amino)pyridin-3-yl)methyl)amino)isoquinolin-8-yl)methanol] |
| > 40 µM | 10 to 40 µM | Nc1nccc2c(NCc3cnc(NCCC(=O)N4CCCC4)nc3)cccc12 [Example 1039, 3-[(5-{[(1-aminoisoquinolin-5-yl)amino]methyl}pyrimidin-2-yl)amino]-1-(pyrrolidin-1-yl)propan-1-one] |
| 10 to 40 µM | 3 to 10 µM | CN1CCC(OCc2ccc(CNc3ccc4nc(N)ccc4c3)cc2)CC1 [Example 2187, N6-(4-(((1-methylpiperidin-4-yl)oxy)methyl)benzyl)quinoline-2,6-diamine] |
| > 20 µM | 10 to 40 µM | COC(=O)c1c[nH]c2nccc(NCc3ccc(NCC4CCN(C)CC4)nc3)c12 [Example 1248, methyl 4-(((6-(((1-methylpiperidin-4-yl)methyl)amino)pyridin-3-yl)methyl)amino)-1H-pyrrolo[2,3-b]pyridine-3-carboxylate] |
| 10 to 40 µM | 10 to 40 µM | CN1CCC(OCc2ccc(CNc3ccc4cc(N)ncc4c3)cc2)CC1 [Example 2188, 7-N-[(4-{[(1-methylpiperidin-4-yl)oxy]methyl}phenyl)methyl]isoquinoline-3,7-diamine] |
| > 40 µM | 10 to 40 µM | Cc1cc2c(NCc3ccc(NCC4CCN(C)CC4)nc3)ncnc2[nH]1 [Example 1254, 6-methyl-N-((6-(((1-methylpiperidin-4-yl)methyl)amino)pyridin-3-yl)methyl)-7H-pyrrolo[2,3-d]pyrimidin-4-amine] |
| > 40 µM | 3 to 10 µM | CC(C)(O)C1CN(c2ccc(CNc3cccc4c(N)nccc34)cn2)Cc2nccn21 (stereo not shown) [Example 1135, 2-(7-(5-(((1-aminoisoquinolin-5-yl)amino)methyl)pyridin-2-yl)-5,6,7,8-tetrahydroimidazo[1,2-a]pyrazin-5-yl)propan-2-ol] |
| 10 to 40 µM | 40 to 100 µM | CN1CCC(COc2cc(CNc3ccc4ncc(=O)[nH]c4c3)ccn2)CC1 [Example 4456] |
| > 40 µM | 3 to 10 µM | Nc1nccc2c(NCc3ccc(N4CCC(CC(F)F)C4)nc3)cccc12 (stereo not shown) [Example 1265, N5-((6-(3-(2,2-difluoroethyl)pyrrolidin-1-yl)pyridin-3-yl)methyl)isoquinoline-1,5-diamine] |
| > 40 µM | 10 to 40 µM | COc1ccc(NCc2ccnc(OCC3CCN(C)CC3)c2)c2ccnc(N)c12 [Example 4470, 8-methoxy-N5-((2-((1-methylpiperidin-4-yl)methoxy)pyridin-4-yl)methyl)isoquinoline-1,5-diamine] |
| > 40 µM | 40 to 100 µM | COc1ccc2c(NCc3ccc(NCC4CCN(C)CC4)nc3)ccnc2c1 [Example 1217, 7-methoxy-N-((6-(((1-methylpiperidin-4-yl)methyl)amino)pyridin-3-yl)methyl)quinolin-4-amine] |
| 10 to 40 µM | 1 to 3 µM | Nc1nccc2c(NCc3ccnc(OC4CCn5ccnc5C4)c3)cccc12 (stereo not shown) [Example 4306, 5-N-[(2-{5H,6H,7H,8H-imidazo[1,2-a]pyridin-7-yloxy}pyridin-4-yl)methyl]isoquinoline-1,5-diamine] |
| > 40 µM | 10 to 40 µM | CNc1cc(NCc2ccc(N3CCn4c(nnc4C(F)F)C3)nc2)ccn1 [Example 1281, N4-((6-(3-(difluoromethyl)-5,6-dihydro-[1,2,4]triazolo[4,3-a]pyrazin-7(8H)-yl)pyridin-3-yl)methyl)-N2-methylpyridine-2,4-diamine] |

| IC50 (Plasma Kallikrein) | IC50 (Human Factor XIIa) | Structure (SMILES) |
| --- | --- | --- |
| > 40 µM | 3 to 10 µM | Nc1ncc(Cl)c2cc(NCc3ccc(N4CCn5nccc5C4CO)nc3)ccc12 (stereo not shown) [Example 1273, (5-(5-(((1-amino-4-chloroisoquinolin-6-yl)amino)methyl)pyridin-2-yl)-4,5,6,7-tetrahydropyrazolo[1,5-a]pyrazin-4-yl)methanol] |
| > 40 µM | 3 to 10 µM | CC(C)(O)[C@@H]1CCN(c2ccc(CNc3cccc4c(N)nccc34)cn2)C1 [Example 1130, (R)-2-(1-(5-(((1-aminoisoquinolin-5-yl)amino)methyl)pyridin-2-yl)pyrrolidin-3-yl)propan-2-ol] |
| 10 to 40 µM | 1 to 3 µM | Nc1ncc(Cl)c2cc(NCc3ccc(N4CCc5nccn5CC4)nc3)ccc12 [Example 1272, 4-chloro-N6-((6-(5,6,8,9-tetrahydro-7H-imidazo[1,2-d][1,4]diazepin-7-yl)pyridin-3-yl)methyl)isoquinoline-1,6-diamine] |
| 10 to 40 µM | 0.3 to 1 µM | Nc1nccc2c(NCc3ccc(N4CCc5nccn5CC4)nc3)cccc12 [Example 1271, N5-((6-(5,6,8,9-tetrahydro-7H-imidazo[1,2-d][1,4]diazepin-7-yl)pyridin-3-yl)methyl)isoquinoline-1,5-diamine] |
| > 40 µM | 3 to 10 µM | Nc1nccc2c(NCc3ccc(N4Cc5nccn5C(CO)C4)nc3)cccc12 (stereo not shown) [Example 1133, (7-(5-(((1-aminoisoquinolin-5-yl)amino)methyl)pyridin-2-yl)-5,6,7,8-tetrahydroimidazo[1,2-a]pyrazin-5-yl)methanol] |
| > 40 µM | 0.3 to 1 µM | Nc1ncc(Cl)c2cc(NCc3cnc(OCC4CCn5ccnc5C4)nc3)ccc12 (stereo not shown) [Example 1052, 4-Chloro-N6-[[2-(5,6,7,8-tetrahydroimidazo[1,2-a]pyridin-7-ylmethoxy)pyrimidin-5-yl]methyl]isoquinoline-1,6-diamine] |
| > 100 µM | 3 to 10 µM | COc1cc(NCc2ccnc(OCC3CCN(C)CC3)c2)cc2ccncc12 [Example 4462, 8-methoxy-N-((2-((1-methylpiperidin-4-yl)methoxy)pyridin-4-yl)methyl)isoquinolin-6-amine] |
| > 100 µM | 40 to 100 µM | CNC(=O)c1cc(NCc2ccnc(OCC3CCN(C)CC3)c2)cc2ccncc12 [Example 4463] |
| 3 to 10 µM | 0.1 to 0.3 µM | Cc1cnc2n1CCC(COc1cc(CNc3cccc4c(N)nccc34)ccn1)C2 (single isomer, unassigned) [Example 4444, (S*)-N5-((2-((3-methyl-5,6,7,8-tetrahydroimidazo[1,2-a]pyridin-7-yl)methoxy)pyridin-4-yl)methyl)isoquinoline-1,5-diamine] |
| > 4 µM | 0.1 to 0.3 µM | CC(C)N1CC2CCC(C1)C2COc1cc(CNc2cccc3c(N)nccc23)ccn1 (stereo not shown) [Example 4297, N5-((2-((3-isopropyl-3-azabicyclo[3.2.1]octan-8-yl)methoxy)pyridin-4-yl)methyl)isoquinoline-1,5-diamine] |
| > 4 µM | 0.01 to 0.1 µM | Nc1nccc2c(NCc3ccnc(OCC4CCn5ccnc5C4)c3)cccc12 (single isomer, unassigned) [Example 4430, (S*)-N5-((2-((5,6,7,8-tetrahydroimidazo[1,2-a]pyridin-7-yl)methoxy)pyridin-4-yl)methyl)isoquinoline-1,5-diamine] |
| 10 to 40 µM | 0.3 to 1 µM | Cc1cn2c(n1)CC(COc1cc(CNc3ccc4c(N)ncc(Cl)c4c3)ccn1)CC2 (single isomer, unassigned) [Example 4442, (R*)-4-chloro-N6-((2-((2-methyl-5,6,7,8-tetrahydroimidazo[1,2-a]pyridin-7-yl)methoxy)pyridin-4-yl)methyl)isoquinoline-1,6-diamine] |
| 3 to 10 µM | 0.3 to 1 µM | Nc1ncc(Cl)c2cc(NCc3cnc(NCC4CCn5ccnc5C4)nc3)ccc12 (stereo not shown) [Example 1043, 4-chloro-6-N-{[2-({5H,6H,7H,8H-imidazo[1,2-a]pyridin-7-ylmethyl}amino)pyrimidin-5-yl]methyl}isoquinoline-1,6-diamine] |
| > 40 µM | 0.3 to 1 µM | Nc1nccc2c(NCc3ccc(OC4CCn5ccnc5C4)nc3)cccc12 (stereo not shown) [Example 1049, N5-[[6-(5,6,7,8-tetrahydroimidazo[1,2-a]pyridin-7-yloxy)-3-pyridyl]methyl]isoquinoline-1,5-diamine] |
| > 40 µM | 10 to 40 µM | CN1CCC(CNc2ccc(CNc3cc(C#N)cc4[nH]ccc34)cn2)CC1 [Example 1256] |
| > 40 µM | 3 to 10 µM | CN1CCC(COc2cc(CNc3ccc(F)c4c(N)nccc34)ccn2)CC1 [Example 4469, 8-fluoro-N5-((2-((1-methylpiperidin-4-yl)methoxy)pyridin-4-yl)methyl)isoquinoline-1,5-diamine] |
